Consider 11 compounds from patent publication US20250368666A1, “INDAZOLE COMPOUNDS” (TYRA BIOSCIENCES, INC., priority 2022, published 2025).

One test has as its target T1, FGFR1 (Homo sapiens, UniProt P11362).
T1 construct: made in house; host or cells: E. coli (BL21-derived), T7 phage
Kind of test: Kinase binding assay (kinase-tagged T7 phage, affinity beads, qPCR), Kd. The conditions noted are these: read-out: FGFR1 (Kd nM). The essentials:
(§1)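 Readout was qPCR of kinase eluted from ligand-coated affinity beads after competition with test compound. Kinases were expressed as T7 phage fusions in E. coli. Binding constants were derived by non-linear least-squares Hill fitting, Hill slope −1.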
A general note: In qPCR the cycle at which signal appears reflects the starting amount.

For a further test, the target named is T2, FGFR2 (Homo sapiens, UniProt P21802).
T2 construct: made in house; host or cells: E. coli (BL21-derived), T7 phage
T2 sequence (P21802 22-821): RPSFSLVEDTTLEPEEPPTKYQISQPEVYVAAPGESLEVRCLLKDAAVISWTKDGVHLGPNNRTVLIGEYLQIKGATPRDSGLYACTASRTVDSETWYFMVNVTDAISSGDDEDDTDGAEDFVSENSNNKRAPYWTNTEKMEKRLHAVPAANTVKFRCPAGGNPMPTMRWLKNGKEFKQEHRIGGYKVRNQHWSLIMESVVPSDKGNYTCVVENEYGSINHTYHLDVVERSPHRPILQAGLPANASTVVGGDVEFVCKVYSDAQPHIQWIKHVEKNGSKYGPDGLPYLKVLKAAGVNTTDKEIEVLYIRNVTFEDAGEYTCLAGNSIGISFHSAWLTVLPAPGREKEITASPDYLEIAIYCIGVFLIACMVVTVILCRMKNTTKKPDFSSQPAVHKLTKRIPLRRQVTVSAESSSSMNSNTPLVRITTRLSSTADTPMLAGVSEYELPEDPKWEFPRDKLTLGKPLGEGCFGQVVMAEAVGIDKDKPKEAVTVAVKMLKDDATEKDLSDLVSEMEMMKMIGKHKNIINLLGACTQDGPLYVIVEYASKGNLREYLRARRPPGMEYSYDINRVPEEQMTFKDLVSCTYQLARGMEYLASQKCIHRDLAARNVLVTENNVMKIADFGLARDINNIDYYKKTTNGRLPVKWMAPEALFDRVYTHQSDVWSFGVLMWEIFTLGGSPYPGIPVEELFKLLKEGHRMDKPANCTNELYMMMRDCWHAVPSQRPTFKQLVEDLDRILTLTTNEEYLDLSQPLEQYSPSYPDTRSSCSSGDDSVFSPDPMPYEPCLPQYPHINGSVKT
The test is described as above. The conditions noted are these: read-out: FGFR2 (Kd nM). The essentials: as §1

In a further test the target is T3, FGFR3 (Homo sapiens, UniProt P22607).
T3 construct: made in house; host or cells: E. coli (BL21-derived), T7 phage
T3 sequence (P22607 23-806): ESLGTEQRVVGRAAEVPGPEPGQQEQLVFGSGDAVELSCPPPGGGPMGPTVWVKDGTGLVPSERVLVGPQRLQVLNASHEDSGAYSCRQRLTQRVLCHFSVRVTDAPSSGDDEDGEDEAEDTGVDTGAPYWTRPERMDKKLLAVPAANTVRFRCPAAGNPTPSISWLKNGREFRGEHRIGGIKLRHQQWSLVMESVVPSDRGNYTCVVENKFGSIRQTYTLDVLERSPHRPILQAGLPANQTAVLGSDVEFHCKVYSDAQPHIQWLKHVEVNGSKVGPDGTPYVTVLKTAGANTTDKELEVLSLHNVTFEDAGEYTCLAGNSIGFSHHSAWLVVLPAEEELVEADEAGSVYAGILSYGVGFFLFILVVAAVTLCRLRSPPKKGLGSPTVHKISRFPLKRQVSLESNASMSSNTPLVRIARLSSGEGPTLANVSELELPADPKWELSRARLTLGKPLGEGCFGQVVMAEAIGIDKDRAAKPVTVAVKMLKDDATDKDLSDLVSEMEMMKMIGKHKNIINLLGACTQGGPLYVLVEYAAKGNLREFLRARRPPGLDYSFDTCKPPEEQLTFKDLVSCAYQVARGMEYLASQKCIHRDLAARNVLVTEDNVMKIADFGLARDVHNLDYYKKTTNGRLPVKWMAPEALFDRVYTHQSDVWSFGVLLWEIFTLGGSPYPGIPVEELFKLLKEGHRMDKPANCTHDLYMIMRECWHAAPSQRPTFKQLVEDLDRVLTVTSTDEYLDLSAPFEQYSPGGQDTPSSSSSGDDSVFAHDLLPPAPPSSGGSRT
The description is as above. The settings on record: read-out: FGFR3 (Kd nM). The essentials:
as §1

In the next test the target is T4, FGFR3 (V555M) (Homo sapiens, UniProt P22607, V555M).
T4 construct: made in house; host or cells: E. coli (BL21-derived), T7 phage
T4 sequence (P22607 23-806 V555M): as the sequence (P22607 23-806) above, with V533M counted along it
Described as above. The settings on record: V555M mutant; read-out: FGFR3 (V555M) (Kd nM). The essentials:
as §1

The next test deals with T5, FGFR4 (Homo sapiens, UniProt P22455).
T5 construct: made in house; host or cells: E. coli (BL21-derived), T7 phage
T5 sequence (P22455 22-802): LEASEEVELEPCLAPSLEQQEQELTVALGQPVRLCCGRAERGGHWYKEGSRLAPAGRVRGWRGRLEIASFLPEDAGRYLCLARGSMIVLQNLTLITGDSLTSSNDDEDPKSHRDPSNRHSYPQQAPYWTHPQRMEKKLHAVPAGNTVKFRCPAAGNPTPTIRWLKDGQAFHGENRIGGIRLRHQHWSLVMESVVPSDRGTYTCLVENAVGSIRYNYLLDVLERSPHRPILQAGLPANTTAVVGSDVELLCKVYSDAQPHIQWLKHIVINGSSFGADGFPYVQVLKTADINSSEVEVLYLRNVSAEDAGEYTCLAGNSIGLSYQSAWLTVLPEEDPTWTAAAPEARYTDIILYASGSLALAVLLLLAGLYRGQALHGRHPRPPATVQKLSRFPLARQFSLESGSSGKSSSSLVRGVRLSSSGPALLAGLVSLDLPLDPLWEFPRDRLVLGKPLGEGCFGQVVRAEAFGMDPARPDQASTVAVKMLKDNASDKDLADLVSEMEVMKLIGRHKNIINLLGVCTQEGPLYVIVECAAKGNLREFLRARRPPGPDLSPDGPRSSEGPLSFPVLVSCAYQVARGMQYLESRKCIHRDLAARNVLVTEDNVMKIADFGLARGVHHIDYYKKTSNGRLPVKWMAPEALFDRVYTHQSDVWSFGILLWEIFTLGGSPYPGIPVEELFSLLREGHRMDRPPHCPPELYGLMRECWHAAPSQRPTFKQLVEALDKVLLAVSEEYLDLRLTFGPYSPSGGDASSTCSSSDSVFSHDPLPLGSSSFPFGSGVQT
The test is described as above. The settings on record: read-out: FGFR4 (Kd nM). An outline of the steps: as §1

Test [1] deals with KATO-III cell line (FGFR2 amplification). Put plainly: Cancer cell line cell viability assay (Cell Titer-Glo), 72 hr. The class given is cell-based. The conditions noted are these: Homo sapiens, KATO III. An outline of the steps:
(§2)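 Following overnight attachment, each line receives compound in triplicate across nine 4-fold dilutions starting at 3 μM, with DMSO backfill for equal solvent. Luminescence after Cell Titer-Glo 2.0 addition gives percent viability versus DMSO control, fitted by 4-parameter logistic for IC50.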
Background: In ATP-based viability assays light output follows the ATP content of the culture.

The subject of test [2] is KG-1 cell line (FGFR 1-fusion). Described as above. The test is classed as cell-based. The settings on record: Homo sapiens, KG-1, KG-1 cell line (FGFR1-fusion). An outline of the steps: as §2
The test system of test [3] is RT112/84 cell line (FGFR3-fusion). The test is described as above. The settings on record: Homo sapiens, RT112/84, RT112/84 cell line (FGFR3-fusion). The class given is cell-based. An outline of the steps:
as §2

T1 sequence (P11362 22-822): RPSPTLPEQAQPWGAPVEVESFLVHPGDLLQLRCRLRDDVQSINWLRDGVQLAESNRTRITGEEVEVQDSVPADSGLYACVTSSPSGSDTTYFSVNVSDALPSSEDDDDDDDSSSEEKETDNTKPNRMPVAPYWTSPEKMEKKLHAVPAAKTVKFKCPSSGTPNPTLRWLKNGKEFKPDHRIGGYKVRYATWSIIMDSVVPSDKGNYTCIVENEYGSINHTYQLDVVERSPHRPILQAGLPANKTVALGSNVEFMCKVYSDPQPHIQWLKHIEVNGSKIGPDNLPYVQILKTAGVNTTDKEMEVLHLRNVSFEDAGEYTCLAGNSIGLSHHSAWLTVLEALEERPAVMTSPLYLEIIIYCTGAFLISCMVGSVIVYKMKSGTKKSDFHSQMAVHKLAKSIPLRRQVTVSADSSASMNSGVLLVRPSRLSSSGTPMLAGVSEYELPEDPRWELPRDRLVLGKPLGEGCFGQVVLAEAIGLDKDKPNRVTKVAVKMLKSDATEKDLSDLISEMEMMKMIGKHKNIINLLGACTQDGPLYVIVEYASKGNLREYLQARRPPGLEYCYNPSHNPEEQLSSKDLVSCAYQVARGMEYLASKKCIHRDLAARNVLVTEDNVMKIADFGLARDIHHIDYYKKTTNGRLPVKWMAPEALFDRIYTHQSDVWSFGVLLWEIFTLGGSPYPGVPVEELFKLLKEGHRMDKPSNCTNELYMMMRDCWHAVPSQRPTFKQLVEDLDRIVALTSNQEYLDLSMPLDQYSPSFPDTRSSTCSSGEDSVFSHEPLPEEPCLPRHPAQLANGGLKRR

For the compound `C[C@H](O)CNC1(C)CN(c2ncc(-c3n[nH]c4ccc(O[C@H](C)c5c(Cl)cncc5Cl)cc34)cc2F)C1` [Example 112, (S)-1-((1-(5-(5-((R)-1-(3,5-dichloropyridin-4-yl)ethoxy)-1H-indazol-3-yl)-3-fluoropyridin-2-yl)-3-methylazetidin-3-yl)amino)propan-2-ol], the Kd at FGFR1, on FGFR2, at FGFR3, at FGFR3 (V555M) and at FGFR4 was 1 to 50 nM throughout. Further, the IC50 in test [1], in test [2] and in test [3] was 0.1 to 50 nM throughout.

For the compound `CC(C)NCC1(C)CN(c2ncc(-c3n[nH]c4ccc(O[C@H](C)c5c(Cl)cncc5Cl)cc34)cc2F)C1` [Example 108, (R)-N-((1-(5-(5-(1-(3,5-dichloropyridin-4-yl)ethoxy)-1H-indazol-3-yl)-3-fluoropyridin-2-yl)-3-methylazetidin-3-yl)methyl)propan-2-amine], the Kd on FGFR1, on FGFR2, on FGFR3, at FGFR3 (V555M) and at FGFR4 was 1 to 50 nM in each case. Besides, the IC50 in test [1], in test [2] and in test [3] was 0.1 to 50 nM each time.

Regarding `C[C@@H](Oc1ccc2[nH]nc(-c3ccc(N4CC(C)(NCCO)C4)nc3)c2c1)c1c(Cl)cncc1Cl` [Example 89, (R)-2-((1-(5-(5-(1-(3,5-dichloropyridin-4-yl)ethoxy)-1H-indazol-3-yl)pyridin-2-yl)-3-methylazetidin-3-yl)amino)ethan-1-ol], the Kd at FGFR1, at FGFR2, at FGFR3, at FGFR3 (V555M) and at FGFR4 was 1 to 50 nM in each case. Further, the IC50 in test [1], in test [2] and in test [3] was 0.1 to 50 nM in each case.

Consider `COc1cc2[nH]nc(-c3cnc(N4CC(C)(NC[C@H](C)O)C4)c(F)c3)c2cc1O[C@H](C)c1c(Cl)cncc1Cl` [Example 160, (S)-1-((1-(5-(5-((R)-1-(3,5-dichloropyridin-4-yl)ethoxy)-6-methoxy-1H-indazol-3-yl)-3-fluoropyridin-2-yl)-3-methylazetidin-3-yl)amino)propan-2-ol], for which the Kd on FGFR1, at FGFR2, at FGFR3, on FGFR3 (V555M) and at FGFR4 was 1 to 50 nM throughout. For the same compound, the IC50 in test [1], in test [2] and in test [3] was 0.1 to 50 nM in each case.

On to `C[C@@H](Oc1cc2c(-c3cnc(N4CC(C)(N5CCCC5)C4)c(F)c3)n[nH]c2cc1F)c1c(Cl)cncc1Cl` [Example 128, (R)-5-(1-(3,5-dichloropyridin-4-yl)ethoxy)-6-fluoro-3-(5-fluoro-6-(3-methyl-3-(pyrrolidin-1-yl)azetidin-1-yl)pyridin-3-yl)-1H-indazole], for which the Kd at FGFR1, at FGFR2, at FGFR3, on FGFR3 (V555M) and at FGFR4 was 1 to 50 nM throughout. In addition, the IC50 in test [1], in test [2] and in test [3] was 0.1 to 50 nM each time.

In the case of `CC(C)NC1(C)CN(c2ncc(-c3n[nH]c4ccc(O[C@H](C)c5c(Cl)cncc5Cl)cc34)cc2F)C1` [Example 117, (R)-1-(5-(5-(1-(3,5-dichloropyridin-4-yl)ethoxy)-1H-indazol-3-yl)-3-fluoropyridin-2-yl)-N-isopropyl-3-methylazetidin-3-amine], the dissociation constant (Kd) on FGFR1, at FGFR2, at FGFR3, at FGFR3 (V555M) and at FGFR4 was 1 to 50 nM in each case. Besides, the values for the IC50 in test [1], in test [2] and in test [3] were 50 to 200 nM, 50 to 200 nM and 0.1 to 50 nM, respectively.

For the compound `C[C@@H](Oc1cc2c(-c3cnc(N4CC5(CC5)C4)nc3)n[nH]c2cc1F)c1c(Cl)cncc1Cl` [Example 60, 3-[2-(5-azaspiro[2.3]hexan-5-yl)pyrimidin-5-yl]-5-[(1R)-1-(3,5-dichloro-4-pyridyl)ethoxy]-6-fluoro-1H-indazole], the Kd (usually the concentration at which binding is half-saturated) on FGFR1 lay within 50 to 300 nM; on FGFR2, 300 to 1000 nM; on FGFR3 it was 1 to 50 nM; at FGFR3 (V555M), 1 to 50 nM; on FGFR4, 1 to 50 nM. Moreover, the results for the IC50 in test [1], in test [2] and in test [3] were over 1000 nM, over 1000 nM and 50 to 200 nM, respectively.

For `C[C@@H](Oc1ccc2[nH]nc(-c3ccc(N4CC(C)(NC5COC5)C4)nc3)c2c1)c1c(Cl)cncc1Cl` [Example 64, (R)-1-(5-(5-(1-(3,5-dichloropyridin-4-yl)ethoxy)-1H-indazol-3-yl)pyridin-2-yl)-3-methyl-N-(oxetan-3-yl)azetidin-3-amine], the Kd on FGFR1, on FGFR2, at FGFR3, at FGFR3 (V555M) and at FGFR4 was 1 to 50 nM throughout. Besides, the IC50 in test [1], in test [2] and in test [3] was 0.1 to 50 nM in each case.

Consider `C[C@@H](Oc1ccc2[nH]nc(-c3cnc(N4CC(C)(NCC(C)(C)O)C4)c(F)c3)c2c1F)c1c(Cl)cncc1Cl` [Example 170, (R)-1-((1-(5-(5-(1-(3,5-dichloro-pyridin-4-yl)ethoxy)-4-fluoro-1H-indazol-3-yl)-3-fluoropyridin-2-yl)-3-methylazetidin-3-yl)amino)-2-methylpropan-2-ol], for which the Kd on FGFR1 is over 1000 nM; at FGFR2, over 1000 nM; at FGFR3, 50 to 300 nM; at FGFR3 (V555M), 50 to 300 nM; on FGFR4 it was 300 to 1000 nM. In addition, the IC50 in test [1], in test [2] and in test [3] was over 1000 nM in each case.

On to `CCNC1(C)CN(c2ncc(-c3n[nH]c4ccc(O[C@H](C)c5c(Cl)cncc5Cl)cc34)cc2F)C1` [Example 149, 1-[5-[5-[(1R)-1-(3,5-dichloro-4-pyridyl)ethoxy]-1H-indazol-3-yl]-3-fluoro-2-pyridyl]-N-ethyl-3-methyl-azetidin-3-amine], for which the Kd at FGFR1, at FGFR2, at FGFR3, at FGFR3 (V555M) and at FGFR4 was 1 to 50 nM in each case. The IC50 in test [1], in test [2] and in test [3] was 0.1 to 50 nM throughout.

Regarding `CC(C)NC1(C)CN(c2ncc(-c3n[nH]c4cc(F)c(O[C@H](C)c5c(Cl)cncc5Cl)cc34)cc2F)C1` [Example 127, (R)-1-(5-(5-(1-(3,5-dichloropyridin-4-yl)ethoxy)-6-fluoro-1H-indazol-3-yl)-3-fluoropyridin-2-yl)-N-isopropyl-3-methylazetidin-3-amine], the Kd at FGFR1, at FGFR2, at FGFR3, on FGFR3 (V555M) and on FGFR4 was 1 to 50 nM in each case. Also, the IC50 (commonly the concentration at which inhibition is half-maximal) was 50 to 200 nM in test [1], 50 to 200 nM in test [2] and 0.1 to 50 nM in test [3].
